Laboratory results from ChEMBL document CHEMBL1143021, “Synthesis of xanthone derivatives with extended pi-systems as alpha-glucosidase inhibitors: insight into the probable binding mode” (Bioorg Med Chem, 2007).

Experiment: Inhibition of yeast alpha glucosidase at pH 6.8
Parameters: species or system Saccharomyces cerevisiae

SMILES | IC50
Oc1cc(O)c2c(c1)Oc1cc3ccccc3cc1C2 | 27.8 µM
COc1cc(O)c2c(=O)c3cc4ccccc4cc3oc2c1 | 31.3 µM
Oc1cc(O)c2c(c1)Oc1ccc3ccccc3c1C2 | 34.9 µM
O=c1c2cc3ccccc3cc2oc2cc(O)cc(O)c12 | 9.3 µM
OC[C@H]1NC(O)C[C@@H](O)[C@@H]1O (stereo not given in full) | 26.4 µM
O=c1c2cc3cc(O)ccc3cc2oc2cc(O)cc(O)c12 | 5.8 µM
O=c1c2cc3cccc(O)c3cc2oc2cc(O)cc(O)c12 | 8 µM
O=c1c2cc3ccccc3cc2oc2c([N+](=O)[O-])c(O)cc(O)c12 | 20.1 µM
O=c1c2c(O)cc(O)cc2oc2ccc3ccccc3c12 | 39.9 µM
O=c1c2ccccc2oc2cc(O)cc(O)c12 | 161 µM
